Measured values published in PMC8456950, “Structure‐Guided Design of G‐Protein‐Coupled Receptor Polypharmacology” (Angewandte Chemie (International Ed. in English), 2021).

Experiments:
Human A2AAR [1] = target: T1, Human A2AAR (Homo sapiens, UniProt P29274); assay: A2AAR competition binding ([3H]-ZM241385 displacement); design: expressed in transfected cells; host or cells: HeLa-A2AAR cell line (membranes); settings: for A2AAR % displacement at 10 μM: 10 μM compound, mean±SEM of three experiments; for Ki: radioligand displacement, mean±SEM of three experiments in duplicate, read-out: A2AAR binding affinity Ki
Protocol: Binding assays. Human A2AAR competition binding experiments were carried out in multiscreen GF/C 96-well plates (Millipore, Madrid, Spain) pretreated with binding buffer (50 mM Tris-HCl, 1 mM EDTA, 10 mM MgCl2, 2 U/ml adenosine deaminase, pH=7.4).
Each well contained 5 µg of membranes from a He l a-A2AAR cell line (protein concentration […]
compound studied. Non-specific binding was determined in the presence of 50 µM NE C A (Sigma E2387). The reaction mixture (200 µl/well) was incubated at 25 °C for 30 min, after which it was filtered and washed four times with 250 µl wash buffer (50 mM Tris -HCl, 1 mM EDTA, 10 mM MgCl 2, pH=7. 4) before measuring in a microplate beta scintillation counter (Microbeta Trilux, PerkinElmer, Madrid, Spain). Three independent experiments were carried out to calculate K i values (n=3). […]

Human D2R [2] = target: T2, Human D2R (Homo sapiens, UniProt P14416); assay: D2R competition binding ([3H]-spiperone displacement); settings: for D2R % displacement at 10 μM: 10 μM compound, mean±SEM of three experiments; for Ki: read-out: D2R binding affinity Ki
T2 construct: expressed in transfected cells; host or cells: CHO-D2R #S20 cell line (membranes)
Protocol: Human D2R competition binding experiments w ere carried out in polypropylene 96-well plates. Each well contained 10 µg of membranes from a CHO-D2R #S20 cell line (protein concentration of 3241 µg/ml), 0.4 nM [3H]-spiperone (80. 2 Ci/mmol, 1 mCi/ml, Perkin […]
The reaction mixture (250 µl/well) was incubated at 25°C for 120 min , after which 200 µL was transferred to a GF/C 96 -well plate (Millipore, Madrid, Spain) pretreated with 0. 5% of PEI and treated with binding buffer (50 mM Tris-HCl, 1 mM EDTA, 5 mM MgCl2, 5 mM KCl, 120 mM NaCl, pH=7.4). The […]
samples were filtered and washed four times with 250 µl wash buffer (50 mM Tris-HCl, 0.9% NaCl, pH=7.4) before measuring in a microplate beta scintillation counter (Microbeta Trilux, PerkinElmer, Madrid, Spain). Three independent exp eriments were carried out to calculate Ki values (n=3). […]

Human D2R [3] = target: T2, Human D2R; assay: D2R functional cAMP (HTRF) assay in CHO-D2 #S20 cells; assay type: cell-based; settings: for EC50: cAMP HTRF, CHO-D2 cells, forskolin 10 µM, mean±SEM n=3; for Emax: relative to the maximal effect of dopamine
Protocol: KB=I C50/(1+([NECA]/EC50 NECA)).
Functional assays for the human D2R were carried out in a CHO-D2 #S20 cell line. 5,000 cells were seed ed in 30 µl of Opti-ME M (Invitrogen 11058) and 500µM IBMX (Sigma 17018) on a 96-well isoplate (PerkinElmer 6005030). The studied compounds wer e then added and incubated for 10 min at 37 °C with gentle stirring (150 rpm). Then, 10 µM […]
forskolin (Sigma 17018) was added and incubated for 5 min at 37 °C with gentle stirring (150 rpm). Reagents (#CISBIO 62AM4PEC) were added and, after incubation for 60 min at rt with gentle stirring (90 rpm) and protected from light, homogeneous time resolved fluorescence (HTRF, λEx: 320 nm; λEm: 620-665 nm) from each well was measured using a Tecan Infinite M1000 Pro. Data were normalized to the maximum effect of dopamine. EC50 and Ema x values were obtained after fitting the d ata to a four -parameter logistic equatio n using Prism V2. 1 (Graph Pad Inc, Chicago, USA) . […]

Human A1AR = target: T3, Human A1AR (Homo sapiens, UniProt P30542); assay: A1AR competition binding ([3H]-DPCPX); settings: 10 µM compound, n=2
T3 construct: expressed in transfected cells; host or cells: CHO-A1AR cell line (membranes)
T3 sequence (P30542 1-326): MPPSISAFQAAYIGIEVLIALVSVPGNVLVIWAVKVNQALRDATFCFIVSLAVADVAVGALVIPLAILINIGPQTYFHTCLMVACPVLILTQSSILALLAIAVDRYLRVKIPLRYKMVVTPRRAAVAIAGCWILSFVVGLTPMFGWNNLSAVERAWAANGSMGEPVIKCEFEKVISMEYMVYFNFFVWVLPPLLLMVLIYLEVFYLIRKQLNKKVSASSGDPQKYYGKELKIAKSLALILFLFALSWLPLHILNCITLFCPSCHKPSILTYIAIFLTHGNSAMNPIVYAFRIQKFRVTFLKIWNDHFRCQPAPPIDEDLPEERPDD
Protocol: Human A1AR competition binding experiments were carried out in multiscreen GF/C 96 -well plates (Millipore, Madrid, Spain) pretreated with assay buffer ( 20 mM Hepes, 100 mM NaCl, 10 mM MgCl2, 2 U/ml adeno sine deamina se, pH=7.4). Each well contained 5 µg of membranes from a CHO-A1AR cell line, 1 nM [3H]-DPCPX (137 Ci/mmol, 1 mCi/Ml, Perkin Elmer NET974001MC), and the compound studied. Non-specific binding was determined in the presence of R-PIA 10 µM (Sigma P4532). The reaction mixture (200 µl/well) was incubated at 25°C for 60 min. The samples were then filtered and washed four times with 250 µl wash buffer (20 mM Hepes, 100 mM NaCl, 10 mM MgCl2, pH=7.4) before measuring in a microplate beta scintillati on counter (Microbeta Trilux, PerkinElmer, Madrid, Spain). Two independent experiments were carried out to calculate K i values (n=2). […]

Human A2AAR [4] = target: T1, Human A2AAR; assay: A2AAR functional assay, inhibition of NECA-elicited cAMP production in CHO-A2A cells; assay type: cell-based; design: expressed in transfected cells; settings: mean±SEM n=3
Protocol: Functional assays. For the human A2AAR, functional experiments measuring cAMP production were carried out in CHO-A2A cell line. The day before the assay, the cells were seeded on a 96-well culture plate (Falcon 353072). The cells were washed with wash buffer (Dulbecco’s modified eagle’s medium nutrient mixture F-12 ham (Sigma D8062), 25 mM Hepes; pH=7.4). Wash buffer was then replaced by incubation buffer (Dulbecco’s modified eagle’s medium nutrient mixture F-12 ham (Sigma D8062), 25 mM Hepes, 20 µM Rolipram, pH=7.4). The studied compounds wer e added and incubated at 37 °C for 15 min. After incubation, NECA (Sigma E2387) was added in several concentrations and incubated at 37 °C for 15 min. After incubation, the amount of cAMP was determined using the cAMP Biotrak Enzymeimmunoassay (EIA) System Kit (GE Healthcare RPN225). Data were adjusted to non-linear fitting by using Prism V2.1 (GraphPad Inc, Chicago USA). K B values were calculated from the IC50 values obtained for each compound by using the formula:
KB=I C50/(1+([NECA]/EC50 NECA)). […]

[5] = radioligand displacement, mean±SEM of three experiments in duplicate

T1 sequence (P29274 whole entry): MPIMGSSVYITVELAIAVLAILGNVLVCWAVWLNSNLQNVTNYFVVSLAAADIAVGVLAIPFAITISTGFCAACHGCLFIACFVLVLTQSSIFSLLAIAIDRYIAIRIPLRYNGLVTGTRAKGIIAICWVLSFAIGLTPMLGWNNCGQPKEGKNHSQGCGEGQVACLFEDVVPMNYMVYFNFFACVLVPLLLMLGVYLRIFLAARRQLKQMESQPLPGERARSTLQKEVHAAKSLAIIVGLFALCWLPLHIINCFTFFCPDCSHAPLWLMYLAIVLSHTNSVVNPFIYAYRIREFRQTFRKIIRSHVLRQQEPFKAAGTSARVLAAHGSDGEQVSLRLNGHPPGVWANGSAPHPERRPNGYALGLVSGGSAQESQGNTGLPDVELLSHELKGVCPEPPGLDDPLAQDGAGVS
T2 sequence (P14416 whole entry): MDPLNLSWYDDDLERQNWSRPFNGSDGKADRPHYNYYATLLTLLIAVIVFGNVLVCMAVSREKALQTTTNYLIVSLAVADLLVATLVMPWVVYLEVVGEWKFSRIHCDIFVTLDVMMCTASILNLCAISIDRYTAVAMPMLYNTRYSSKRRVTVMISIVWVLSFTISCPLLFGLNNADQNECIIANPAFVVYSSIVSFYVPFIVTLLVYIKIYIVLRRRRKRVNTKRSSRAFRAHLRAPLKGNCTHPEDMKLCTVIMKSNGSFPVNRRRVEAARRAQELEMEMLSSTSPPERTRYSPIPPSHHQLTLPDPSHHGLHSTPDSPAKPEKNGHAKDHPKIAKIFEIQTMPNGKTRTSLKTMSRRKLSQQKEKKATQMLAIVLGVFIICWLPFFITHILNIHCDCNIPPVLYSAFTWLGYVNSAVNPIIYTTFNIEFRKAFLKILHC

| Compound | A2AAR % displacement at 10 μM (Human A2AAR [1]) | Ki (Human A2AAR [1]) | Ki (Human D2R [2]; [5]) | EC50 (Human D2R [3]) | Emax (Human D2R [3]) | other results |
| --- | --- | --- | --- | --- | --- | --- |
| Cc1cccc2sc(NC(=O)CCCCN(C)C3Cc4ccccc4C3)nc12 [Compound 2] | significant radioligand displacement | 1.2 ± 0.1 µM | 0.9 ± 0.08 µM | 9.7 ± 3.8 µM | 93 ± 12% | D2R % displacement at 10 μM (Human D2R [2]): significant radioligand displacement; D2R binding affinity Ki (Human D2R [2]; [5]): submicromolar |
| CN(CCCCNc1nc(-c2ccccc2)nc2[nH]ccc12)C1Cc2ccccc2C1 [Compound 3] | significant radioligand displacement | 5.6 ± 0.9 µM | 0.29 ± 0.03 µM | – | – | D2R % displacement at 10 μM (Human D2R [2]): significant radioligand displacement |
| CCOc1cc(C)nc(NCCCCN(C)C2Cc3ccccc3C2)n1 [Compound 4] | significant radioligand displacement | 8.4 ± 1.3 µM | 0.33 ± 0.03 µM | – | – | D2R % displacement at 10 μM (Human D2R [2]): significant radioligand displacement |
| Cc1nc(NC(=O)CCCCN(C)C2Cc3ccccc3C2)sc1C [Compound 5] | 3 ± 2% | – | 0.68 ± 0.05 µM | – | – | – |
| Cc1ccc(NC(=O)CCCCN(C)C2Cc3ccccc3C2)nc1 [Compound 6] | 7 ± 4% | – | 0.67 ± 0.06 µM | – | – | – |
| CN(C)c1ncnc(NC(=O)CCCCN(C)C2Cc3ccccc3C2)n1 [Compound 7] | 4 ± 3% | – | – | – | – | – |
| CN(CCCCC(=O)Nc1nc2ncccc2[nH]1)C1Cc2ccccc2C1 [Compound 8] | 5 ± 1% | – | 0.08 ± 0.01 µM | – | – | – |
| CN(CCCCNc1ncc(-c2ccccc2)o1)C1Cc2ccccc2C1 [Compound 9] | 9 ± 6% | – | 0.29 ± 0.03 µM | – | – | – |
| CN(CCCCNc1ncc2ccn(C)c2n1)C1Cc2ccccc2C1 [Compound 10] | 8 ± 3% | – | – | – | – | – |
| Cc1cc(C)n2nc(NCCCCN(C)C3Cc4ccccc4C3)nc2n1 [Compound 11] | 4 ± 4% | – | 0.43 ± 0.05 µM | – | – | – |
| CCCCCC(=O)Nc1nc2c(C)cccc2s1 [Compound 12] | – | 8.1 ± 3.8 µM | – | – | – | D2R % displacement at 10 μM (Human D2R [2]): 1±2% |
| CNC(=O)CCCCN(C)C1Cc2ccccc2C1 [Compound 13] | 5±2% | – | 5 ± 1.3 µM | – | – | activity for the A2AAR (in words) (Human A2AAR [1]; binding assay): no activity |
| COc1cccc2sc(NC(=O)CCCCN(C)C3Cc4ccccc4C3)nc12 [Compound 18] | – | 0.37 ± 0.05 µM | 0.39 ± 0.03 µM | 26 ± 14 µM | 89 ± 18% | A1AR % displacement at 10 µM (Human A1AR): 18 ± 3% |

Second part, led by results:

| A2AAR % displacement at 10 μM (Human A2AAR [1]) | Ki (Human A2AAR [1]) | Ki (Human D2R [2]; [5]) | EC50 (Human D2R [3]) | Emax (Human D2R [3]) | Compound | other results |
| --- | --- | --- | --- | --- | --- | --- |
| – | 0.42 ± 0.04 µM | 0.51 ± 0.05 µM | 23 ± 9 µM | 82 ± 22% | CN(CCCCC(=O)Nc1nc2c(Cl)cccc2s1)C1Cc2ccccc2C1 [Compound 19] | – |
| – | 0.19 ± 0.03 µM | 0.34 ± 0.03 µM | 1.5 ± 0.02 µM | 62 ± 9% | CN(CCCCC(=O)Nc1nc2c(Br)cccc2s1)C1Cc2ccccc2C1 [Compound 20] | Kb (Human A2AAR [4]): 0.32 ± 0.03 µM; improvement of A2AAR affinity over compound 2 (Human A2AAR [1]; relative to 2): > 6 fold |
| – | 0.63 ± 0.08 µM | 0.33 ± 0.02 µM | – | – | CCN(CCCCC(=O)Nc1nc2c(OC)cccc2s1)C1Cc2ccccc2C1 [Compound 21] | – |
| – | 2.9 ± 0.6 µM | 0.2 ± 0.02 µM | – | – | CCCN(CCCCC(=O)Nc1nc2c(F)cccc2s1)C1Cc2ccccc2C1 [Compound 23] | – |
| – | 11 ± 3 µM | 0.82 ± 0.18 µM | – | – | CCCN(CCCCC(=O)Nc1nc2c(CC)cccc2s1)C1Cc2ccccc2C1 [Compound 24] | – |
| – | 0.99 ± 0.24 µM | 0.34 µM | 0.75 ± 0.07 µM | 81 ± 5% | CCCN(CCCCC(=O)Nc1nc2c(C)cccc2s1)C1Cc2ccccc2C1 [Compound 25] | – |
| – | 0.47 ± 0.11 µM | 0.9 ± 0.1 µM | 1.2 ± 0.2 µM | 104 ± 6% | CCCN(CCCCC(=O)Nc1nc2c(OC)ccc(Cl)c2s1)C1Cc2ccccc2C1 [Compound 28] | – |
| – | 0.46 ± 0.04 µM | 0.67 ± 0.07 µM | 0.98 ± 0.01 µM | 105 ± 5% | CCCN(CCCCC(=O)Nc1nc2c(OC)ccc(C)c2s1)C1Cc2ccccc2C1 [Compound 29] | Kb (Human A2AAR [4]): 1.9 ± 0.7 µM |
| – | 1.6 ± 0.3 µM | 0.63 ± 0.05 µM | 5.2 ± 2.6 µM | 88 ± 13% | Cc1cccc2sc(NC(=O)CCCN(C)C3Cc4ccccc4C3)nc12 [Compound 31] | – |
| – | 0.67 ± 0.11 µM | 0.88 ± 0.11 µM | 1.2 ± 0.3 µM | 51 ± 4% | CN(CCCC(=O)Nc1nc2c(Br)cccc2s1)C1Cc2ccccc2C1 [Compound 32] | – |
| – | 1.1 ± 0.2 µM | 2.2 ± 0.3 µM | 5 ± 2.8 µM | 81 ± 6% | CN(CCC(=O)Nc1nc2c(Br)cccc2s1)C1Cc2ccccc2C1 [Compound 33] | – |
| – | 0.3 ± 0.05 µM | 1.3 ± 0.2 µM | 31 ± 12 µM | 103 ± 3% | COc1ccc(OC)c2sc(NC(=O)CCN(C)C3Cc4ccccc4C3)nc12 [Compound 37] | – |
| – | 1.3 ± 0.2 µM | 2 ± 0.3 µM | 28 ± 9 µM | 107 ± 6% | CCN(CCC(=O)Nc1nc2c(OC)ccc(C)c2s1)C1Cc2ccccc2C1 [Compound 39] | – |
| – | 0.72 ± 0.07 µM | 1.9 ± 0.3 µM | 8.9 ± 2.7 µM | 105 ± 5% | CCN(CCC(=O)Nc1nc2c(OC)ccc(OC)c2s1)C1Cc2ccccc2C1 [Compound 40] | – |
